In brackets after ≈: the same amount, converted by molar mass.
Legend:
Mus musculus [1] = assay: Acute toxicity in Kunming mouse assessed as sleep pattern abnormality at 500 mg/kg, administered as single dose after 14 days; assay type: organism-based; conditions: in vivo, 336 h
Mus musculus [2] = assay: Acute toxicity in Kunming mouse assessed as structural abnormality in liver at 500 mg/kg, administered as single dose after 14 days by hematoxylin and eosin staining based histological analysis; assay type: organism-based; conditions: in vivo, 336 h
Mus musculus [3] = assay: Acute toxicity in Kunming mouse assessed as structural abnormality in kidney at 500 mg/kg, administered as single dose after 14 days by hematoxylin and eosin staining based histological analysis; assay type: organism-based; conditions: in vivo, 336 h
[4] = Antiproliferative activity against human HuTu 80 cells after 48 hrs by MTT assay; assay type: functional, cell-based; conditions: HuTu80, 48 h
4T1 [5] = assay: Antiproliferative activity against mouse 4T1 cells after 48 hrs by MTT assay; assay type: functional, cell-based; conditions: 4T1, 48 h
[6] = Antiproliferative activity against human PANC1 cells after 48 hrs by MTT assay; assay type: functional, cell-based; conditions: PANC-1, 48 h
[7] = (§1) Cytotoxicity against HUVEC assessed as reduction in cell survival after 48 hrs by MTT assay; assay type: cell-based, Homo sapiens; conditions: human, HUVEC cells
HUVEC = assay: as §1; assay type: cell-based, Homo sapiens; conditions: Homo sapiens, HUVEC, 48 h
[8] = (§2) Cytotoxicity against HEK293 cells assessed as reduction in cell survival after 48 hrs by MTT assay; assay type: cell-based, Homo sapiens; conditions: human, HEK293 cells
HEK293 [9] = assay: as §2; assay type: cell-based, Homo sapiens; conditions: Homo sapiens, HEK293, 48 h
HuTu80 [10] = assay: Selectivity index, ratio of IC50 for HUVEC to IC50 for human HuTu 80 cells
4T1 [11] = assay: Selectivity index, ratio of IC50 for HUVEC to IC50 for mouse 4T1 cells
PANC-1 = assay: Selectivity index, ratio of IC50 for HUVEC to IC50 for human PANC1 cells
HEK293 [12] = assay: Selectivity index, ratio of IC50 for HEK293 cells to IC50 for human HuTu 80 cells; assay type: functional
HEK293 [13] = assay: Selectivity index, ratio of IC50 for HEK293 cells to IC50 for mouse 4T1 cells; assay type: functional
HEK293 [14] = assay: Selectivity index, ratio of IC50 for HEK293 cells to IC50 for human PANC1 cells; assay type: functional
HuTu80 [15] = assay: Induction of apoptosis in human HuTu 80 cells assessed as live cells at 3 ug/ml after 48 hrs by Annexin V/propidium iodide staining based flow cytometry (reference value: 92.5%); assay type: functional
HuTu80 [16] = assay: Induction of apoptosis in human HuTu 80 cells assessed as early apoptotic cells at 3 ug/ml after 48 hrs by Annexin V/propidium iodide staining based flow cytometry (reference value: 0.5%); assay type: functional
HuTu80 [17] = assay: Induction of apoptosis in human HuTu 80 cells assessed as late apoptotic cells at 3 ug/ml after 48 hrs by Annexin V/propidium iodide staining based flow cytometry (reference value: 1.6%); assay type: functional
HuTu80 [18] = assay: Induction of apoptosis in human HuTu 80 cells assessed as necrotic cells at 3 ug/ml after 48 hrs by Annexin V/propidium iodide staining based flow cytometry (reference value: 5.3%); assay type: functional
[19] = Cell cycle arrest in human HuTu 80 cells assessed as accumulation at subG1 phase at 3 ug/ml after 48 hrs by propidium iodide staining based flow cytometry (reference value: 2.27 to 2.3%); assay type: functional; conditions: HuTu80
[20] = Cell cycle arrest in human HuTu 80 cells assessed as accumulation at G1 phase at 3 ug/ml after 48 hrs by propidium iodide staining based flow cytometry (reference value: 43.3 to 43.32%); assay type: functional; conditions: HuTu80
[21] = Cell cycle arrest in human HuTu 80 cells assessed as accumulation at S phase at 3 ug/ml after 48 hrs by propidium iodide staining based flow cytometry (reference value: 15.79 to 15.8%); assay type: functional; conditions: HuTu80
[22] = Cell cycle arrest in human HuTu 80 cells assessed as accumulation at G2/M phase at 3 ug/ml after 48 hrs by propidium iodide staining based flow cytometry (reference value: 23.2%); assay type: functional; conditions: HuTu80
Mus musculus [23] = assay: Acute toxicity in Kunming mouse assessed as survival at 500 mg/kg, administered as single dose measured on day 14 post dose; assay type: organism-based; conditions: in vivo
Mus musculus [24] = assay: Acute toxicity in Kunming mouse assessed as physical/abnormal changes in skin at 500 mg/kg, administered as single dose after 14 days; assay type: organism-based; conditions: in vivo, 336 h
Mus musculus [25] = assay: Acute toxicity in Kunming mouse assessed as physical/abnormal changes in fur at 500 mg/kg, administered as single dose after 14 days; assay type: organism-based; conditions: in vivo, 336 h
Mus musculus [26] = assay: Acute toxicity in Kunming mouse assessed as physical/abnormal changes in eyes at 500 mg/kg, administered as single dose after 14 days; assay type: organism-based; conditions: in vivo, 336 h
Mus musculus [27] = assay: Acute toxicity in Kunming mouse assessed as physical/abnormal changes in mucus membrane at 500 mg/kg, administered as single dose after 14 days; assay type: organism-based; conditions: in vivo, 336 h
Mus musculus [28] = assay: Acute toxicity in Kunming mouse assessed as tremor induction at 500 mg/kg, administered as single dose after 14 days; assay type: organism-based; conditions: in vivo, 336 h
Mus musculus [29] = assay: Acute toxicity in Kunming mouse assessed as induction of salivation at 500 mg/kg, administered as single dose after 14 days; assay type: organism-based; conditions: in vivo, 336 h
Mus musculus [30] = assay: Acute toxicity in Kunming mouse assessed as behavior pattern abnormality at 500 mg/kg, administered as single dose after 14 days; assay type: organism-based; conditions: in vivo, 336 h

| Structure (SMILES) | Activity (Mus musculus [1]) | Activity (Mus musculus [2]) | Activity (Mus musculus [3]) | IC50 [4] | IC90 [4] | IC50 (4T1 [5]) | IC90 (4T1 [5]) | IC50 [6] | IC90 [6] | IC90 at 48 h [7] | IC50 (HUVEC) | IC90 at 48 h [8] | IC50 (HEK293 [9]) | Ratio IC50 (HuTu80 [10]) | Ratio IC50 (4T1 [11]) | Ratio IC50 (PANC-1) | Ratio IC50 (HEK293 [12]) | Ratio IC50 (HEK293 [13]) | Ratio IC50 (HEK293 [14]) | Activity (Mus musculus [23]) | also measured |
| --- | --- | --- | --- | --- | --- | --- | --- | --- | --- | --- | --- | --- | --- | --- | --- | --- | --- | --- | --- | --- | --- |
| O=c1oc2ccccc2c(O)c1C(c1ccc(F)c(F)c1)c1c(O)c2ccccc2oc1=O | Non-toxic | Non-toxic | Non-toxic | 15 µg/mL (≈ 33.5 µM) | 28 µg/mL (≈ 62.4 µM) | 47.9 µg/mL (≈ 107 µM) | 98.4 µg/mL (≈ 219 µM) | 82.4 µg/mL (≈ 184 µM) | 155 µg/mL (≈ 346 µM) | 276 µg/mL (≈ 616 µM) | 112 µg/mL (≈ 251 µM) | 221 µg/mL (≈ 492 µM) | 107 µg/mL (≈ 239 µM) | 7.5 | 2.3 | 1.36 | 7.1 | 2.2 | 1.3 | Non-toxic | Activity (HuTu80 [15]): 88%; Activity (HuTu80 [16]): 1.2%; Activity (HuTu80 [17]): 3.2%; Activity (HuTu80 [18]): 7.5%; Activity [19]: 25.1%; Activity [20]: 26.1%; Activity [21]: 18.5%; Activity [22]: 15.3%; Activity (Mus musculus [24]): Non-toxic; Activity (Mus musculus [25]): Non-toxic; Activity (Mus musculus [26]): Non-toxic; Activity (Mus musculus [27]): Non-toxic; Activity (Mus musculus [28]): Non-toxic; Activity (Mus musculus [29]): Non-toxic; Activity (Mus musculus [30]): Non-toxic |
| N#CC1=C(N)OC2=C(C(=O)CC2)C1c1ccc(Cl)cc1Cl (centres undefined) |  |  |  | 150 µg/mL (≈ 466 µM) | 302 µg/mL (≈ 941 µM) | 127 µg/mL (≈ 396 µM) | 307 µg/mL (≈ 955 µM) | 156 µg/mL (≈ 486 µM) | 325 µg/mL (≈ 1010 µM) |  |  |  |  |  |  |  |  |  |  |  |  |
| CC(C)c1ccc(C2C(C#N)=C(N)Oc3c2c(=O)oc2ccccc32)cc1 (centres undefined) |  |  |  | 238 µg/mL (≈ 664 µM) | > 500 µg/mL | > 300 µg/mL | > 500 µg/mL | 256 µg/mL (≈ 715 µM) | > 500 µg/mL |  |  |  |  |  |  |  |  |  |  |  |  |
| COc1ccccc1C(c1c(O)c2ccccc2oc1=O)c1c(O)c2ccccc2oc1=O | Non-toxic | Non-toxic | Non-toxic | 17.9 µg/mL (≈ 40.5 µM) | 110 µg/mL (≈ 248 µM) | 52.2 µg/mL (≈ 118 µM) | 133 µg/mL (≈ 301 µM) | 62.1 µg/mL (≈ 140 µM) | 110 µg/mL (≈ 249 µM) | 269 µg/mL (≈ 607 µM) | 119 µg/mL (≈ 270 µM) | 282 µg/mL (≈ 638 µM) | 117 µg/mL (≈ 264 µM) | 6.7 | 2.3 | 1.9 | 6.5 | 2.2 | 1.9 | Non-toxic | Activity (Mus musculus [24]): Non-toxic; Activity (Mus musculus [25]): Non-toxic; Activity (Mus musculus [26]): Non-toxic; Activity (Mus musculus [27]): Non-toxic; Activity (Mus musculus [28]): Non-toxic; Activity (Mus musculus [29]): Non-toxic; Activity (Mus musculus [30]): Non-toxic |
| N#Cc1ccc(C(c2c(O)c3ccccc3oc2=O)c2c(O)c3ccccc3oc2=O)cc1 | Non-toxic | Non-toxic | Non-toxic | 47.6 µg/mL (≈ 109 µM) | 98.3 µg/mL (≈ 225 µM) | 51.5 µg/mL (≈ 118 µM) | 102 µg/mL (≈ 233 µM) | 93.5 µg/mL (≈ 214 µM) | 202 µg/mL (≈ 461 µM) | 322 µg/mL (≈ 735 µM) | 162 µg/mL (≈ 371 µM) | 343 µg/mL (≈ 783 µM) | 180 µg/mL (≈ 411 µM) | 3.4 | 3.1 | 1.73 | 3.8 | 3.5 | 1.9 | Non-toxic | Activity (Mus musculus [24]): Non-toxic; Activity (Mus musculus [25]): Non-toxic; Activity (Mus musculus [26]): Non-toxic; Activity (Mus musculus [27]): Non-toxic; Activity (Mus musculus [28]): Non-toxic; Activity (Mus musculus [29]): Non-toxic; Activity (Mus musculus [30]): Non-toxic |
| N#CC1=C(N)Oc2c(c(=O)oc3ccccc23)C1c1ccc([N+](=O)[O-])cc1 (centres undefined) |  |  |  | 97 µg/mL (≈ 268 µM) | 187 µg/mL (≈ 518 µM) | 142 µg/mL (≈ 394 µM) | 289 µg/mL (≈ 801 µM) | 218 µg/mL (≈ 604 µM) | 348 µg/mL (≈ 963 µM) |  |  |  |  |  |  |  |  |  |  |  |  |
| CC1(C)CC(=O)C2=C(C1)OC(N)=C(C#N)C2c1cc(C(F)(F)F)cc(C(F)(F)F)c1 (centres undefined) |  |  |  | > 300 µg/mL | > 500 µg/mL | > 300 µg/mL | > 500 µg/mL | > 300 µg/mL | > 500 µg/mL |  |  |  |  |  |  |  |  |  |  |  |  |
| N#CC1=C(N)OC2=C(C(=O)CC2)C1c1cccc(C#N)c1 (centres undefined) |  |  |  | 191 µg/mL (≈ 690 µM) | 381 µg/mL (≈ 1370 µM) | 125 µg/mL (≈ 452 µM) | 299 µg/mL (≈ 1080 µM) | 143 µg/mL (≈ 515 µM) | 317 µg/mL (≈ 1140 µM) |  |  |  |  |  |  |  |  |  |  |  |  |

Source: ChEMBL document CHEMBL3826930, “Antitumor activities of biscoumarin and dihydropyran derivatives” (Bioorg Med Chem Lett, 2016)
